# Laboratory results as given in paper PMC9929129, “Towards Translation of PqsR Inverse Agonists: From In Vitro Efficacy Optimization to In Vivo Proof‐of‐Principle” (Advanced Science, 2023).
# Where “and” joins values, the source holds several entries; their conditions need not be identical. Equal entries are not always repeated.
# Assays:
# [1] = system: 14 PA clinical isolates from bronchiectasis patients; test: Pyocyanin inhibition assay in clinical isolates; assay type: cell-based, Pseudomonas aeruginosa; details: 2 × 10^−6 M 24, LB-medium, 16 h
# Procedure: Pyoverdine determinations. Precultures of each strain were grown 20 h at 37°C in M9 minimal […]
# with 30 mM succinate, 2 mM MgSO , 10 μM FeSO and 2.5 mL L−1 of trace elements solution.[10] Next, […]
# 5 µl of each culture were transferred to 10 ml of M9 minimal medium devoid of iron and trace element solution, and cultured again for 24 h at 37°C with constant shaking. After incubation, the OD600 of the cultures was determined: The cell contained in 1 mL medium were harvested by centrifugation (5 min; 14,000 rpm) and the absorbance at 405 nm (A405nm) of 0.8 ml of the supernatant was determined spectrophotometrically and normalized to the OD600 of the culture measured before (i.e. A405nm, OD600-1). PA14 and PAO1 were also assayed as controls. The experiments were carried out at least in triplicates.
# Pyocyanin inhibition assay. The inhibition of pyocyanin production in the clinical isolates (CIs) and the type strains (PA14 and PAO1) was tested by the treatment of LB-grown cultures incubated for 16 h at 37°C with constant shaking with 2 µM of 24/DMSO or with 2 µl of DMSO as control. Pyocyanin extraction and quantification were carried out as described in section 1.2.2. Pyocyanin concentrations (μg mL −1) were calculated by multiplication of its absorbance at 520 nm with a […]
# correction factor of 17.072, and normalized to the OD600 of the culture.
# AhR receptor = molecular target: T1, AhR receptor (Homo sapiens, UniProt P35869); test: AhR nuclear receptor activation, luciferase reporter gene assay; assay type: cell-based
# T1 construct: Cyprotex
# Procedure: 1.4.4 Pharmacokinetic and off-target functional assays (Cyprotex)
# Compound 24 was assayed at Cyprotex in functional assays for interference with important off-targets as well as important pharmacokinetic parameters. With the exception of plasma protein binding, a dose-response relationship was studied in order to calculate IC50 values.
# Table S10. Information on in vitro ADMET assays performed at Cyprotex. […]
# An increase in the number of colonies of at least two-fold over baseline (mean + SD of the vehicle control) and a dose response indicate a positive response. An […]
# different from the vehicle control.
# Where indicated, S9 fraction from the livers of Aroclor 1254-treated rats were included in the incubation at a final concentration of 4.5%. A NADPH-regenerating system was also included to ensure a steady supply of reducing equivalents.
# [2] = molecular target: T2, HTR2B Human 5-Hydroxytryptamine GPCR (Homo sapiens, UniProt P41595); test: HTR2B GPCR calcium assay, 86-0030P-2091AG; assay type: cell-based
# T2 construct: 86-0030P-2091AN
# From the text: 1.4.2 Further functional off-target assays (Eurofins)
# Table S8. Compound 24 was further tested in the following functional assays at Eurofins.
# ASSAY NAME ESTIMATED IC50 [µM] […]
# (§1) FLIPR Assay expressed in HEK293 cells
# GABAA α5/β3/γ2 ionotropic receptor (human GABRA5, GABRB3, >30
# and GABRG2 genes, expressed in HEK293 cells
# [3] = molecular target: T3, GABAA α5/β3/γ2 ionotropic receptor (Homo sapiens, UniProt P18507+P28472+P31644); test: Ion channel profiling at Charles River: GABAA; assay type: cell-based
# T3 construct: host or cells: HEK293 cells
# Procedure: 1.4.3 Ion Channel Profiling at Charles River
# Table S9. Compound 24 was tested against the following ion channels at Charles River Laboratories. […]
# FASTPatch Assay IK (KCa3.1) calcium-activated potassium channel (human KCNN4 >30 gene) expressed in CHO cells […]
# ScreenPatch Assay Kv1.3 potassium channel (human KCNA3 gene) expressed in CHO […]
# as §1
# GABAA α5/β3/γ2 ionotropic receptor (human GABRA5, GABRB3, >30 and GABRG2 genes, expressed in HEK293 cells
# Na+ channel (site 2) = test: Cerep panel binding assay; design: species or system rat; details: 10 µM, antagonist radioligand
# Procedure: (§2) 1.4 Safety Pharmacology of Compound 24
# (§3) 1.4.1 Cerep panel (Eurofins)
# (§4) Compound 24 was further profiled for its off-target interactions against a panel of 44 targets. The
# (§5) screening was done by Eurofins Pharma Discovery within the SafetyScreen44 Panel (Cerep, ITEM
# P270). In all assays binding/functional inhibition was determined at 10 µM.
# Table S6. […]
# COX-1 (h) = molecular target: T4, COX-1 (h) (Homo sapiens, UniProt P23219); test: Cerep panel functional assay; assay type: biochemical
# T4 construct: Eurofins Pharma Discovery (CRO that ran the assay) SafetyScreen44 Panel (Cerep, ITEM P270)
# Procedure: as §2, §3, §4, §5
# (§6) P270). In all assays binding/functional inhibition was determined at 10 µM. […]
# COX-2 (h) = molecular target: T5, COX-2 (h) (Homo sapiens, UniProt P35354); test: Cerep panel functional assay; assay type: biochemical
# T5 construct: Eurofins Pharma Discovery (CRO that ran the assay) SafetyScreen44 Panel (Cerep, ITEM P270)
# Procedure: as §2, §3, §4, §5, §6
# Lck kinase (h) = molecular target: T6, Lck kinase (h) (Homo sapiens, UniProt P06239); test: Cerep panel functional assay; assay type: biochemical
# T6 construct: Eurofins Pharma Discovery (CRO that ran the assay) SafetyScreen44 Panel (Cerep, ITEM P270)
# Procedure: as §2, §3, §4, §5, §6
# PDE3A (h) = molecular target: T7, PDE3A (h) (Homo sapiens, UniProt Q14432); test: Cerep panel functional assay; assay type: biochemical
# T7 construct: Eurofins Pharma Discovery (CRO that ran the assay) SafetyScreen44 Panel (Cerep, ITEM P270)
# Procedure: as §2, §3, §4, §5, §6
# PDE4D2 (h) = molecular target: T8, PDE4D2 (h) (Homo sapiens, UniProt Q08499); test: Cerep panel functional assay; assay type: biochemical
# T8 construct: Eurofins Pharma Discovery (CRO that ran the assay) SafetyScreen44 Panel (Cerep, ITEM P270)
# Procedure: as §2, §3, §4, §5, §6
# acetylcholinesterase (h) = molecular target: T9, acetylcholinesterase (h) (Homo sapiens, UniProt P22303); test: Cerep panel functional assay; assay type: biochemical
# T9 construct: Eurofins Pharma Discovery (CRO that ran the assay) SafetyScreen44 Panel (Cerep, ITEM P270)
# Procedure: as §2, §3, §4, §5, §6
# [4] = SafetyScreen44 (Eurofins), whole panel; details: at 10 × 10^−6 M
# Procedure: as §2, §3
# Compound 24 was further profiled for its off-target interactions against a panel of 44 targets. The screening was done by Eurofins Pharma Discovery within the SafetyScreen44 Panel (Cerep, ITEM P270). In all assays binding/functional inhibition was determined at 10 µM.
# Table S6. List of binding assays within the CEREP44 off-target panel and binding data for compound […]
# Ca2+ channel (L, dihydropyridine site) (antagonist radioligand) 75.3
# Norepinephrine transporter (h) (antagonist radioligand) 74.7
# Potassium Channel hERG (human) [3H] Dofetilide 73.1 […]
# 5-HT transporter (h) (antagonist radioligand) 49.8 […]
# MAO-A (antagonist radioligand) 24.9 kappa (h) (KOP) (agonist radioligand) 23.6 dopamine transporter (h) (antagonist radioligand) 22.7 […]
# KV channel (antagonist radioligand) 14.2 […]
# 5-HT1A (h) (agonist radioligand) 11.3 alpha2A (h) (antagonist radioligand) 8.4 […]
# T1 sequence (P35869 11-848): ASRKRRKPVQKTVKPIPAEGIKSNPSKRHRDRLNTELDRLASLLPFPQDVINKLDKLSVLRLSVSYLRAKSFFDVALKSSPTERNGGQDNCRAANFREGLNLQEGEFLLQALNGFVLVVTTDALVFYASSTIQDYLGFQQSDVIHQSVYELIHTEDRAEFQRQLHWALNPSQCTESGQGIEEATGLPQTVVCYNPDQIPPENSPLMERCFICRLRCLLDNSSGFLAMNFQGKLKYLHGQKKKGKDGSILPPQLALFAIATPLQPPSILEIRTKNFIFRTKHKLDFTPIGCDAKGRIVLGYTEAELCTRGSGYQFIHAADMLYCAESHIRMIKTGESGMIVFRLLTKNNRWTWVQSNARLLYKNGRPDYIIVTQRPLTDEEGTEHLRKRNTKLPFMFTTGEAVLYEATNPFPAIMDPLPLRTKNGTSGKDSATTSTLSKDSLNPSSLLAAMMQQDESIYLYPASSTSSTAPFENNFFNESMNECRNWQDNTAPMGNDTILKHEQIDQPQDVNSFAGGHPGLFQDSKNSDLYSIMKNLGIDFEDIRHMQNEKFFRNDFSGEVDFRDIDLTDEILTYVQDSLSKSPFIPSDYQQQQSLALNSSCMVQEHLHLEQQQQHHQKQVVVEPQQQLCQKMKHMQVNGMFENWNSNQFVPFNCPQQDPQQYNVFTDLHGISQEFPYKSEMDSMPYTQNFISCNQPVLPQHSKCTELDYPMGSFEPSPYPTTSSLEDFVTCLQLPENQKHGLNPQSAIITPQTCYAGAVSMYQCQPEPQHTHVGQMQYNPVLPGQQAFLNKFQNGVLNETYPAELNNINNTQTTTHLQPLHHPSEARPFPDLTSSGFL
# T9 sequence (P22303 32-614): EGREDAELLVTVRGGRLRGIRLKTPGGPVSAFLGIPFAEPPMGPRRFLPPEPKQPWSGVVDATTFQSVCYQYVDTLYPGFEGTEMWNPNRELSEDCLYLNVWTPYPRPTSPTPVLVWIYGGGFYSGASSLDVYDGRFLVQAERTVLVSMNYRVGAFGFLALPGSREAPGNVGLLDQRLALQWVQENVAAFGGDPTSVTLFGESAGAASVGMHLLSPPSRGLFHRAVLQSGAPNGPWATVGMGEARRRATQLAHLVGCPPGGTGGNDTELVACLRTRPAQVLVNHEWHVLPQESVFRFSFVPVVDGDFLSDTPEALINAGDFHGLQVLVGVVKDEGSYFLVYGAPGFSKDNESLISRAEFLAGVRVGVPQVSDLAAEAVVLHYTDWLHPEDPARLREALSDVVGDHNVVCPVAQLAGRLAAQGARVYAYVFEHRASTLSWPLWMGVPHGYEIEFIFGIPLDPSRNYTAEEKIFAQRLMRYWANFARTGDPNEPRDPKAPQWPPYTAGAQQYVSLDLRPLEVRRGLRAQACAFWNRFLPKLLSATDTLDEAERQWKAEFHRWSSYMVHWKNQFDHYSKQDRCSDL
# T4 sequence (P23219 24-599): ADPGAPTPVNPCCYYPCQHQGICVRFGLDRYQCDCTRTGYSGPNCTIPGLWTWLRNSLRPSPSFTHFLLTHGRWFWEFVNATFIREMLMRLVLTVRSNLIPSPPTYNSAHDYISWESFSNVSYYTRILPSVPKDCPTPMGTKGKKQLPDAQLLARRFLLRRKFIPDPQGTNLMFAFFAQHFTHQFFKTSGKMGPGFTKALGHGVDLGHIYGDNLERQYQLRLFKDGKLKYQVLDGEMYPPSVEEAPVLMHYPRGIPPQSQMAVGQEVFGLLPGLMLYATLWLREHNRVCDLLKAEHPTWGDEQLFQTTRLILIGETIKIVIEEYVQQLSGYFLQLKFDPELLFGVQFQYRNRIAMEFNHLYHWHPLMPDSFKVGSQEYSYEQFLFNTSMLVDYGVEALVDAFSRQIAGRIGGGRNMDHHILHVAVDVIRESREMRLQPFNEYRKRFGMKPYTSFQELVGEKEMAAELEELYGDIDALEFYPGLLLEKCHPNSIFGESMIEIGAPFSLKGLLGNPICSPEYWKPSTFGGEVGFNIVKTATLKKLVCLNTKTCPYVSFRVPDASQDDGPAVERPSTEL
# T8 sequence (Q08499 303-809 limits assumed): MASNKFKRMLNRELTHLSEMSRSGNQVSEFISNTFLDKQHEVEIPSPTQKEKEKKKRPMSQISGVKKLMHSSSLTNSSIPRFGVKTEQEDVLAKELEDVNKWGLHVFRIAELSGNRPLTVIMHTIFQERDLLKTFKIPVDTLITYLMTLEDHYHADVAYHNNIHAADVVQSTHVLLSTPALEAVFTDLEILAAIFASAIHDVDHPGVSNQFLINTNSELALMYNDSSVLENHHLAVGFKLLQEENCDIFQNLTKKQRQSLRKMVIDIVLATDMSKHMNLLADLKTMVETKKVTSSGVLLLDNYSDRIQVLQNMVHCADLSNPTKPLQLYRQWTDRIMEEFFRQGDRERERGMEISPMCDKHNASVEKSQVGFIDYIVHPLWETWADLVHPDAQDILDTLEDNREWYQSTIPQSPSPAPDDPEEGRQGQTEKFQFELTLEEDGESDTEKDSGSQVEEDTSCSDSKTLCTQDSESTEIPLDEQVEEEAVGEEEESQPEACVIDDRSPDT
# T6 sequence (P06239 whole entry): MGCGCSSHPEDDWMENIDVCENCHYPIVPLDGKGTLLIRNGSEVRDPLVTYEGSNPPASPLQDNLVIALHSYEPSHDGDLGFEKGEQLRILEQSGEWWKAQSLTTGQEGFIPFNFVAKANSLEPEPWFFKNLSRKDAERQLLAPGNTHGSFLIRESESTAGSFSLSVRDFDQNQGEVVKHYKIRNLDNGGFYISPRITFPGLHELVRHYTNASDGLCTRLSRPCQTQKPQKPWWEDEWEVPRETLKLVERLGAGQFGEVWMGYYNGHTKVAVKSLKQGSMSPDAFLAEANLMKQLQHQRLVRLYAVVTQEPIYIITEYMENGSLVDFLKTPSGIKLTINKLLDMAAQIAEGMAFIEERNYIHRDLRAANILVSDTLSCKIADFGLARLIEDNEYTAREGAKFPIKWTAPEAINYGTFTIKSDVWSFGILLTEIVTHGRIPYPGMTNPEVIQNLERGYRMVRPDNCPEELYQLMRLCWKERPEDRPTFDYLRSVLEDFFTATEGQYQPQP
# T7 sequence (Q14432 whole entry): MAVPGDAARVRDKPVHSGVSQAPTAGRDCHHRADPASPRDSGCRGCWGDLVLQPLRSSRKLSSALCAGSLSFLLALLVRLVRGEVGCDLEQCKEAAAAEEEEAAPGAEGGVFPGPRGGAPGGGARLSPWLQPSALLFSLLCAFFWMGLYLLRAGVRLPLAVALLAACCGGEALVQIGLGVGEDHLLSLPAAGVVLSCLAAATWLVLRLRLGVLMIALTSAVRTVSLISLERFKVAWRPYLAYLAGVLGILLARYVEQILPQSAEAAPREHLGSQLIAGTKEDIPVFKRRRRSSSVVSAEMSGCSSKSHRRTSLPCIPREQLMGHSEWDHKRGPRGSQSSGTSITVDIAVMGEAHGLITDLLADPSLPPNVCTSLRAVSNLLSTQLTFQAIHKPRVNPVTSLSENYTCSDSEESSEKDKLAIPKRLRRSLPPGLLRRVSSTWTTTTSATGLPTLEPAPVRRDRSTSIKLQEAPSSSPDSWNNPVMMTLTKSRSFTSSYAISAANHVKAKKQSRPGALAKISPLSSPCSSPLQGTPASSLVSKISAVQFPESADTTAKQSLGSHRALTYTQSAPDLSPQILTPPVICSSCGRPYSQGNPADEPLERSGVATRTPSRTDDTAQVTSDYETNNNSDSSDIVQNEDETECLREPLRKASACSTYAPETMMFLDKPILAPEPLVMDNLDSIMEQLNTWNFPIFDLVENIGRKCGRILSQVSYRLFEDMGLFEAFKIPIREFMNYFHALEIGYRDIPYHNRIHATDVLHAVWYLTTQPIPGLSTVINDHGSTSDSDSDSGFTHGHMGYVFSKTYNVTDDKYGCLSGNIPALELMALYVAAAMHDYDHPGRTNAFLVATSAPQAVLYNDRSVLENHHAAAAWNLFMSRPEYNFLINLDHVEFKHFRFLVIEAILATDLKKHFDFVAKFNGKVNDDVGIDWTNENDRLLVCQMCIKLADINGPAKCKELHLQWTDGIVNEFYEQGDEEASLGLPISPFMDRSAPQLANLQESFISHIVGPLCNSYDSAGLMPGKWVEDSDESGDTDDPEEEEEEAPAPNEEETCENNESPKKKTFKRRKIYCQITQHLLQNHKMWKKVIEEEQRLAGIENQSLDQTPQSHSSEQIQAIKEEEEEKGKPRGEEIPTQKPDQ
# T2 sequence (P41595 whole entry): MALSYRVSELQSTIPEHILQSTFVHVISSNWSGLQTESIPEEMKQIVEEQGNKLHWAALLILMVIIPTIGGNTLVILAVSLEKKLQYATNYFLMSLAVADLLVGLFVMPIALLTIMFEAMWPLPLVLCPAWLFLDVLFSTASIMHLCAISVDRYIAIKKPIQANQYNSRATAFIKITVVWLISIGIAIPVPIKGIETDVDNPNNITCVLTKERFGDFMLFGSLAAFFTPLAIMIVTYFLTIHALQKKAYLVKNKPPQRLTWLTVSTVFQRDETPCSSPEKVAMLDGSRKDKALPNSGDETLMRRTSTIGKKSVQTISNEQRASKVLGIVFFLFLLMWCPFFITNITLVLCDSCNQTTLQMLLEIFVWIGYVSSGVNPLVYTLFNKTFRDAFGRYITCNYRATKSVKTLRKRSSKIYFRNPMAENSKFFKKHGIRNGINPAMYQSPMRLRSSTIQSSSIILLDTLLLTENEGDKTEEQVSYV
smiles,measurement,setting,value
CC(C)Oc1ccc(-c2ncc(CNc3ccnc(C(F)(F)F)c3)cn2)cc1Cl [Compound 24],Production of pyocyanin by clinical isolates,[1],dramatic reduction
same,fold AhR receptor induction,AhR receptor; fold activation @1 × 10^−6 M,0.91 @1 × 10^−6 M ^a)
same,AhR induction,AhR receptor; up to 25 × 10^−6 M,Neither AhR induction
same,IC50,[2],> 10 µM
same,IC50,[3],> 30 µM
same,BINDING (%),Na+ channel (site 2),57.2% and > 50%
same,inhibition at 10 µM,COX-1 (h),8.8%
same,inhibition at 10 µM,COX-2 (h),19.1%
same,inhibition at 10 µM,Lck kinase (h),-6.8%
same,inhibition at 10 µM,PDE3A (h),0.3%
same,inhibition at 10 µM,PDE4D2 (h),6.7%
same,inhibition at 10 µM,acetylcholinesterase (h),-1.9%
same,effects on any target of SafetyScreen44,[4],≤ 80%
